Eight molecules from ChEMBL document CHEMBL1201862, “PubChem BioAssay data set” (2004) can be followed below.

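Compound exposure: 48 hours, 5 concentrations, 96-well plates. GI50 is the concentration that inhibits growth by half.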 Active and inactive are the calls of the source. Rule as the data show it: active = GI50 up to about 1.1 µM and inactive = higher.

Common to all, as to assay: inhibition of tumour cell growth, NCI panel, 48 h
Experiment [1] deals with NCI/ADR-RES.
Experiment [2] relates to UACC-62.
Experiment [3] has as its system COLO 205.
For experiment [4], the system named is OVCAR-5.
The test system of experiment [5] is A498.
The test system of experiment [6] is SK-MEL-28.
In experiment [7] the test system is UO-31.
For experiment [8], the system named is RXF 393.
Experiment [9] relates to SK-MEL-5.
Experiment [10] deals with NCI-H23.
Experiment [11] has as its system SF-539.
In experiment [12] the test system is OVCAR-8.
Experiment [13] concerns KM12.
Experiment [14] concerns MDA-N.
Experiment [15] relates to MDA-MB-231.
Experiment [16] relates to K562.
Experiment [17] concerns HT-29.
The subject of experiment [18] is SW-620.
For experiment [19], the system named is NCI-H460.

As to `CC(=O)OC(C)(C)CCC(=O)[C@](C)(O)[C@H]1[C@H](O)C[C@@]2(C)[C@@H]3CCc4c(cc(OC5OC(CO)C(O)C(O)C5O)c(O)c4C)C3(C)C(=O)C[C@]12C` (some centres undefined), the GI50 in experiment [1], in experiment [2], in experiment [3], in experiment [4], in experiment [5] and in [6] was > 100 µM (inactive) each time. Further, the GI50 in [7], in experiment [8], in experiment [9], in experiment [10], in experiment [11] and in experiment [12] was > 100 µM (inactive) in each case. The GI50 in experiment [13], in [14], in experiment [15], in experiment [16], in experiment [17] and in [18] was > 100 µM (inactive) in each case. Also, in experiment [19], the GI50 is > 100 µM (inactive).

Regarding `COC(=O)C1(C(=O)OC)N=C(C)OC1C(C)C` (centres undefined), the GI50 in experiment [1], in experiment [3], in [4], in experiment [5], in experiment [6] and in experiment [7] was > 100 µM (inactive) each time. The GI50 in experiment [8], in experiment [9], in experiment [10], in [12], in experiment [13] and in [14] was > 100 µM (inactive) throughout. The GI50 in experiment [16], in [18] and in experiment [19] was > 100 µM (inactive) throughout.

For the molecule `NC(=S)N/N=C1\C(=O)C=C(Nc2ccc(Cl)cc2Cl)c2ccccc21`, the GI50 in experiment [1] was 33.6 µM (inactive); in experiment [2] it was 2.64 µM (inactive); in experiment [3] it was 35.9 µM (inactive); in experiment [4], > 100 µM (inactive); in experiment [5], 23.3 µM (inactive); in experiment [6], > 100 µM (inactive). The GI50 is 92 µM (inactive) in experiment [7]; 18.6 µM (inactive) in experiment [8]; 27.4 µM (inactive) in experiment [9]; 23.2 µM (inactive) in experiment [10]; 7.38 µM (inactive) in experiment [11]; 21.9 µM (inactive) in experiment [12]. Besides, the GI50 in experiment [13] was > 100 µM (inactive); in [14], > 100 µM (inactive); in [15] it was 10.3 µM (inactive); in experiment [17], > 100 µM (inactive); in experiment [18], > 100 µM (inactive); in [19], 57.4 µM (inactive).

Take `Cc1cccc2c1Oc1cc(Cl)ccc1C2NC(=O)CCN1CCN(CCO)CC1` (centres undefined): the GI50 in experiment [1] was 15.8 µM (inactive); in experiment [2], 5.66 µM (inactive); in experiment [3], 17.7 µM (inactive); in [4], 21.1 µM (inactive); in experiment [6], 3.13 µM (inactive); in experiment [7] it was 12.8 µM (inactive). Moreover, the GI50 is 14 µM (inactive) in experiment [9]; 23.1 µM (inactive) in experiment [10]; 13.1 µM (inactive) in [11]; 13.4 µM (inactive) in experiment [12]; 3.55 µM (inactive) in experiment [13]; 4.25 µM (inactive) in experiment [14]. The GI50 in experiment [15] was 3.69 µM (inactive); in experiment [16], 18.2 µM (inactive); in [17], 15 µM (inactive); in experiment [18] it was 18.3 µM (inactive); in experiment [19] it was 19.1 µM (inactive).

In the case of `CCCCNC(=S)Nc1nc(C(=O)NNC(=O)c2ccccc2)cs1`, the GI50 in experiment [1] was 16.9 µM (inactive); in experiment [2], 17.6 µM (inactive); in [3], 13.3 µM (inactive); in [4], 17.6 µM (inactive); in experiment [5] it was 30.3 µM (inactive); in experiment [7], 14.1 µM (inactive). For the same molecule, the GI50 in experiment [9] is 10.8 µM (inactive); in experiment [10] it was > 10 µM (inactive); in [12], 17.4 µM (inactive); in experiment [13], 15.2 µM (inactive); in experiment [14] it was 17.5 µM (inactive); in experiment [15], 12.5 µM (inactive). Also, the results for the GI50 in experiment [16], in experiment [17] and in experiment [18] were 44.5 µM (inactive), 24 µM (inactive) and 14 µM (inactive), respectively.

Turning to `O=C(O)CC1OCC=C2CN3CCC45c6ccccc6NC4C1C2CC35` (centres undefined), the GI50 in [1], in [2], in [3], in experiment [4], in experiment [5] and in [6] was > 100 µM (inactive) throughout. The GI50 in experiment [7], in [8], in experiment [9], in experiment [10], in [11] and in [12] was > 100 µM (inactive) throughout. Besides, the GI50 in experiment [13], in experiment [14], in experiment [15], in [16], in experiment [17] and in [18] was > 100 µM (inactive) in each case. In experiment [19], the GI50 is > 100 µM (inactive).

As for `C=CCOc1cc2c(cc1C(C)c1ccc(OC)cc1)OCO2` (centres undefined), the GI50 in experiment [2] was 0.416 µM (active); in experiment [3] it was 0.471 µM (active); in experiment [4] it was 12.2 µM (inactive); in experiment [5], 2.08 µM (inactive); in [6] it was > 100 µM (inactive); in [7], 0.583 µM (active). For the same molecule, the GI50 is 0.091 µM (active) in experiment [8]; 0.601 µM (active) in experiment [9]; 0.807 µM (active) in experiment [10]; 0.333 µM (active) in [11]; 0.624 µM (active) in experiment [12]; 0.372 µM (active) in experiment [13]. Moreover, the GI50 in [14] was 0.337 µM (active); in experiment [15], 11.5 µM (inactive); in experiment [16], 0.39 µM (active); in experiment [17], 0.286 µM (active); in [18], 0.375 µM (active); in [19] it was 0.409 µM (active).

Regarding `COc1ccc(-n2c(=O)c3nc[nH]c3n(-c3ccc(OC)cc3)c2=S)cc1`, the GI50 in experiment [1], in experiment [2], in experiment [3], in experiment [4], in experiment [5] and in experiment [6] was > 100 µM (inactive) throughout. Besides, the GI50 in experiment [7], in experiment [8], in experiment [9], in experiment [10], in experiment [11] and in [12] was > 100 µM (inactive) in each case. Also, the GI50 in experiment [13], in [15], in experiment [16], in experiment [17], in experiment [18] and in experiment [19] was > 100 µM (inactive) throughout.
